# Measurements: patent publication US4550118A, “Heterocyclic compounds” (Ikeda Mohando Co., Ltd., priority 1982, dated 1985)
# Assays:
# [1] = tested on: acid secretion in pylorus-ligated rats; test: Anti-secretory effect (histamine-stimulated gastric acid secretion) in pylorus-ligated rat; assay type: in vivo, male wistar rats; conditions: 30 min before histamine 3 mg/kg s.c., ** at 1% vs control; for inhibition in vivo at 2 mg/kg: Rattus norvegicus, sc, 3 h, 2 mg/kg s.c., n=5, * significant at 5%, read-out: inhibitory effect of acid secretion (%) at 2 mg/kg s.c.
# Procedure: (A) Anti-secretory Effect in Pylorus-ligated Rat
# After 24 hr fasting, male wistar rats weighing about 160 g were anesthetized by intraperitoreal injection of urethans 1.2 g/kg. Then, after ligating the pylorus and the esophagus, the proventriculus was incised and a double polyethylene cannula was inserted. The gastric wall was washed out with 5 ml of physiological saline every 30 minutes and the amount of acid contained in the saline after washing was measured by titration. After measuring the basal acid secretion of the pylorus ligated rats three times, the compounds of the invention, 2 mg/kg, were administered subcutaneously and, 30 minutes thereafter, histamine 3 mg/kg, was administered also subcutaneously. Then, the amounts of acid secretion were measured for 3 hours. […] Then, an inhibition rate was calculated in accordance with the following formula, in relation to the increment values measured for the control group. [formula]
# One group included five examples.
# [2] = target: T1, histamine H2 receptor in atria (Cavia porcellus, UniProt P47747); test: Histamine H2 receptor inhibition effect by isolated guinea pig right atrium preparation (negative chronotropic effect); assay type: cell-based, Male Hartley Guinea Pig; conditions: 5×10^-6 mol sample 3 minutes prior to histamine, mean of five; for Kb: read-out: inhibitory effect of histamine H2 receptor in atria (pA2 value) (converted)
# T1 construct: right atrium was isolated; from tissue; host or cells: isolated right atrium of male Hartley guinea pig
# T1 sequence (P47747 whole entry): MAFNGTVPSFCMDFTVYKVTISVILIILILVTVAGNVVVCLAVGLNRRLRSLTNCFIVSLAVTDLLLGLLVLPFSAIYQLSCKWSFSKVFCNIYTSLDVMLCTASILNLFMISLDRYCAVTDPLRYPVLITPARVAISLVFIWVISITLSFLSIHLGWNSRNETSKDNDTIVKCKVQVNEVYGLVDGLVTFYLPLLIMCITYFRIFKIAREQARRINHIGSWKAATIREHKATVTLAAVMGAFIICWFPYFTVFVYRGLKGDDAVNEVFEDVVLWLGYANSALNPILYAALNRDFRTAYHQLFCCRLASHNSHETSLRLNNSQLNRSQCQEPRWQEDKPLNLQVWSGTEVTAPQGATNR
# Procedure: (B) Measurement of Histamine H2 Receptor Inhibition Effect by Isolated Guinea Pig Right Atrium Preparation
# Male Hartley Guinea Pig weighing around 400 g was sacrified by decapitation, and right atrium was isolated. The right atrium was suspended in an organ bath (50 ml) containing modified Ringer solution. Under application of a tensile load of 1 g, the heart rate was recorded by means of a polygraph. Histamine was applied cumulatively from 1×10^-7 mol to 3×10^-4 mol and a cumulative dosage response curve was drawn. Then, 5×10^-6 mol of the sample was administered 3 minutes prios to histamine application. The negative logarithmic value (pA2) of the specimen molarity required for shifting the curve to the right to double concentration was calculated.
Molecule,Kb [2],inhibitory effect of histamine H2 receptor in atria (pA2 value) [2],inhibition in vivo at 2 mg/kg [1],"inhibitory effect of acid secretion (%) at 2 mg/kg s.c. ([1]; n=5, * significant at 5%)"
"CNC(=C[N+](=O)[O-])NCCSCc1ccc2[nH]c(CN(C)C)nc2c1 [Example 42, 1-nitro-2-methylamino-2-[2-<5-(2-dimethylaminomethylbenzimidazolyl)methylthio>ethylamino]ethylene]",1.45 µM,,93%,
"CNC(=C[N+](=O)[O-])NCCOc1ccc2[nH]c(CN3CCCC3)nc2c1 [Example 25, 1-nitro-2-methylamino-2-[2-<5-(2-(1-pyrrolidinomethyl)benzimidazolyl)oxy>ethylamino]ethylene]",0.631 µM,,99%,
"O=c1[nH]c(NCCCOc2ccc3[nH]c(CN4CCCC4)nc3c2)ncc1Cc1cccnc1 [Example 67, 2-{3-[5-<2-(1-pyrrolidinomethyl)benzimidazolyl>oxy]propylamino}-5-(3-pyridylmethyl)-4-pyrimidone]",4.68 µM,,93%,
"CN(C)Cc1cnc(NCCCOc2ccc3[nH]c(CN4CCCCC4)nc3c2)[nH]c1=O [Example 61, 5-dimethylaminomethyl-2-[3-<5-(2-(1-piperidinomethyl)benzimidazolyl)oxy>propylamino]-4-pyrimidone]",3.09 µM,,64%,
"CNC(=NC#N)NCCCSCc1ccc2[nH]c(CN(C)C)nc2c1 [Example 37, N-cyano-N'-methyl-N""-[3-<5-(2-dimethylaminomethylbenzimidazolyl)methylthio>propyl]guanidine]",1.66 µM,,38%,
"O=c1[nH]c(NCCCOc2ccc3[nH]c(CN4CCCC4)nc3c2)ncc1Cc1ccc2c(c1)OCO2 [Example 63, 5-[5-(1,3-benzodioxolyl)methyl]-2-[3-<5-(2-(1-pyrrolidinomethyl)benzimidazolyl)oxy>propylamino]-4-pyrimidone]",4.07 µM,,78%,
"CN(C)Cc1nc2cc(CSCCNc3ncc(CN(C)C)c(=O)[nH]3)ccc2[nH]1 [Example 73, 2-[2-<5-(2-dimethylaminomethylbenzimidazolyl)methylthio>ethylamino]-5-dimethylaminomethyl-4-pyrimidone]",0.631 µM,,91%,
"1-methyl-3-pyridylideneimino-5-[2-<5-(2-dimethylaminomethylbenzimidazolyl)methylthio>ethyl]-1H-1,2,4-triazole-5-amine [Example 100]",,5.75,,72%
"C#CCNC(=C[N+](=O)[O-])NCCSCc1ccc2[nH]c(CN(C)C)nc2c1 [Example 44, 1-nitro-2-propargylamino-2-[2-<5-(2-dimethylaminomethylbenzimidazolyl)methylthio>ethylamino]ethylene]",0.631 µM,,57%,
"O=c1[nH]c(NCCCOc2ccc3[nH]c(CN4CCCCC4)nc3c2)ncc1Cc1cccnc1 [Example 68, 2-{3-[5-<2-(1-piperidinomethyl)benzimidazolyl>oxy]propylamino}-5-(3-pyridylmethyl)-4-pyrimidone]",9.55 µM,,90%,
"O=c1[nH]c(NCCCOc2ccc3[nH]c(CN4CCCCC4)nc3c2)ncc1Cc1ccc2c(c1)OCO2 [Example 64, 5-[5-(1,3-benzodioxolyl)methyl]-2-[3-<5-(2-(1-piperidinomethyl)benzimidazolyl)oxy>propylamino]-4-pyrimidone]",5.89 µM,,76%,
CNC(=NC#N)NCCCOc1ccc2[nH]c(CN3CCCC3)nc2c1 [Example 3],1.17 µM,,54%,
"CN(C)Cc1nc2cc(CSCCNC(N)=NC#N)ccc2[nH]1 [Example 34, N-cyano-N'-[2-<5-(2-dimethylaminomethylbenzimidazolyl)methylthio>ethyl]guanidine]",0.832 µM,,52%,
"CNC(=NC#N)NCCCCOc1ccc2[nH]c(CN(C)C)nc2c1 [Example 2, N-cyano-N'-methyl-N""-[4-<5-(2-dimethylaminomethylbenzimidazolyl)oxy>butyl]guanidine]",1.51 µM,,75%,

# Now from value to molecule, other results behind:
Kb [2],inhibitory effect of histamine H2 receptor in atria (pA2 value) [2],Molecule,inhibition in vivo at 2 mg/kg [1],"inhibitory effect of acid secretion (%) at 2 mg/kg s.c. ([1]; n=5, * significant at 5%)"
0.562 µM,,"CN(C)Cc1nc2cc(CSCCC(N)=NS(N)(=O)=O)ccc2[nH]1 [Example 121, N-sulfamoyl-3-[5-(2-dimethylaminomethylbenzimidazolyl)methylthio]propionamidine]",76%,
2.45 µM,,"CN(C)Cc1nc2cc(CSCCCC(N)=NS(N)(=O)=O)ccc2[nH]1 [Example 122, N-sulfamoyl-4-[5-(2-dimethylaminomethylbenzimidazolyl)methylthio]butyroamidine]",32%,
6.46 µM,,"CN(C)Cc1nc2cc(OCCCNc3nc(N)nn3C)ccc2[nH]1 [Example 91, 1-methyl-5-[3-<5-(2-dimethylaminomethylbenzimidazolyl)oxy>propyl]-1H-1,2,4-triazole-3,5-diamine]",81%,
8.51 µM,,"CCNc1n[s+]([O-])nc1NCCCSc1ccc2[nH]c(NC(=N)N)nc2c1 (stereo not shown) [Example 113, 3-N-[3-<5-(2-guanidinobenzimidazolyl)thio>propyl]amino-4-ethylamino-1,2,5-thiadiazole-1-oxide]",63%,
,6.08,"Nc1n[s+]([O-])nc1NCCSCc1ccc2[nH]c(CN3CCCCC3)nc2c1 (stereo not shown) [Example 105, 3-{2-[5-<2-(1-piperidinomethyl)benzimidazolyl>methylthio]ethyl}amino-4-amino-1,2,5-thiadiazole-1-oxide]",92%,
1.23 µM,,"CN(C)Cc1nc2cc(CSCCNc3ncc(Cc4cccnc4)c(=O)[nH]3)ccc2[nH]1 [Example 76, 2-[2-<5-(2-dimethylaminomethylbenzimidazolyl)methylthio>ethylamino]-5-(3-pyridylmethyl)-4-pyrimidone]",102%,
0.759 µM,,"C#CCNc1n[s+]([O-])nc1NCCSCc1ccc2[nH]c(CN(C)C)nc2c1 (stereo not shown) [Example 109, 3-[2-<5-(2-dimethylaminomethylbenzimidazolyl)methylthio>ethyl]amino-4-(2-propinylamino)-1,2,5-thiadiazole-1-oxide]",74%,
5.5 µM,,"CN(C)Cc1nc2cc(OCCCCNc3nc(N)nn3C)ccc2[nH]1 [Example 92, 1-methyl-5-[4-<5-(2-dimethylaminomethylbenzimidazolyl)oxy>butyl]-1H-1,2,4-triazole-3,5-diamine]",92%,
0.933 µM,,"CN(C)Cc1nc2cc(CSCCNc3nc(N)n[nH]3)ccc2[nH]1 [Example 96, 5-[2-<5-(2-dimethylaminomethylbenzimidazolyl)methylthio>ethyl]-1H-1,2,4-triazole-3,5-diamine]",,
4.07 µM,,"CN(C)Cc1nc2cc(OCCCNc3nnc(Cc4cccnc4)c(=O)[nH]3)ccc2[nH]1 [Example 83, 3-[3-<5-(2-dimethylaminomethylbenzimidazolyl)oxy>propylamino]-6-(3-pyridylmethyl)-1,2,4-triazine-5-one]",78%,
1.58 µM,,"C#CCNC1=NS(=O)(=O)N=C1NCCSCc1ccc2[nH]c(CN(C)C)nc2c1 [Example 110, 3-[2-<5-(2-dimethylaminomethylbenzimidazolyl)methylthio>ethyl]amino-4-(2-propynylamino)-1,2,5-thiadoazole-1,1-dioxide]",68%,
